Results taken from patent US10005767B2, “Compositions and methods for inhibition of the JAK pathway” (Rigel Pharmaceuticals, Inc., priority 2009, dated 2018).
Counter-ions that a name gives are not always drawn. Like-named read-outs stand apart in the source and are kept apart here.

Test system: human primary T-cells, IL-2 stimulated proliferation (JAK-1 and JAK-3 dependent; reported as JAK3 activity)
Experiment: Human primary T-cell proliferation stimulated by IL-2 (Example 3)
Type: cell-based
Conditions: tested under conditions described in Example 3 (IL-2 stimulated human primary T-cell proliferation), read-out: ability to inhibit JAK3 activity, IC50 range (Table V)
How it was run: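 Peripheral-blood human T-cells pre-activated via TCR/CD28, IL-2-starved overnight, then cultured 72 h at 37 °C with compound in Yssel's medium containing IL-2 (80 U/mL in cell suspension). Proliferation read as viable-cell ATP by CellTiter-Glo luminescence; reduction versus control taken as JAK pathway inhibition.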

`Cc1ccc(Nc2ncc(C)c(Nc3ccc4oc(=O)[nH]c4c3)n2)cc1-c1ccncc1` [Compound I-443, 5-(5-methyl-2-(4-methyl-3-(pyridin-4-yl)phenylamino)pyrimidin-4-ylamino)benzo[d]oxazol-2(3H)-one] showed an IC50 (Homo sapiens, T-cell) of under 500 nM.
For `Cc1cnc(Nc2ccc(NS(C)(=O)=O)cc2)nc1Nc1ccc2[nH]c(=O)[nH]c2c1` [Compound I-50, N2-(4-(methylsulfonylamino)phenyl)-N4-(1H-benzo[d]imidazol-2(3H)-on-5-yl)-5-methylpyrimidine-2,4-diamine], the IC50 (Homo sapiens, T-cell) was under 500 nM.
`Cc1cnc(Nc2cccc(OC(C)(C)C#N)c2)nc1Nc1ccc2oc(=O)[nH]c2c1` [Compound I-342, N2-[3-(1-cyano-1-methyl)ethoxy]phenyl-5-methyl-N4-(2-oxo-2,3-dihydro-1,3-benzoxazol-5-yl)-2,4-pyrimidinediamine] was tested, and the IC50 was under 500 nM.
`Cc1cnc(Nc2ccc(N3CCC4CCC3N4C)cc2)nc1Nc1ccc2oc(=O)[nH]c2c1` (centres unmarked) [Compound I-123, N4-(benzo[d]oxazol-2(3H)-on-5-yl)-N2-(4-(8-methyl-2,8-diazabicyclo[3.2.1]octan-2-yl)phenyl)-5-methylpyrimidine-2,4-diamine] showed an IC50 (Homo sapiens, T-cell) of under 500 nM.
Work on `COc1cc(Nc2ncc(C)c(Nc3ccc4oc(=O)[nH]c4c3)n2)cc2ccccc12` [IV-55, 5-[2-(4-Methoxy-naphthalen-2-ylamino)-5-methyl-pyrimidin-4-ylamino]-3H-benzooxazol-2-one] yielded an IC50 (Homo sapiens, T-cell) of under 500 nM.
In the case of `Cc1cnc(Nc2cccc(OC(F)(F)F)c2)nc1Nc1ccc2oc(=O)[nH]c2c1` [Compound I-106, N4-(benzoxazolin-2-on-5-yl)-N2-(3-trifluoromethoxyphenyl)-5-methylpyrimidine-2,4-diamine trifluoroacetate salt], the IC50 (Homo sapiens, T-cell) is reported as under 500 nM.
`Cc1cnc(Nc2ccc3c(c2)C=CCN(C)C3=O)nc1Nc1ccc2oc(=O)[nH]c2c1` [IV-19, (Z)-5-(5-methyl-2-(2-methyl-1-oxo-2,3-dihydro-1H-benzo[c]azepin-7-ylamino)pyrimidin-4-ylamino)benzo[d]oxazol-2(3H)-one] gave an IC50 (Homo sapiens, T-cell) of under 500 nM.
With `Cc1cnc(Nc2ccc(Cl)c(N3CC(C)N(C)C(C)C3)c2)nc1Nc1ccc2oc(=O)[nH]c2c1` (centres unmarked) [Compound I-284, N2-[4-chloro-3-(3,4,5-trimethylpiperazino)]phenyl-5-methyl-N4-(2-oxo-2,3-dihydro-1,3-benzoxazol-5-yl)-2,4-pyrimidinediamine] the IC50 was under 500 nM.
For `COc1cc(Nc2ncc(C)c(Nc3ccc4oc(=O)[nH]c4c3)n2)cc(C)c1F` [Compound I-432, 5-(2-(4-fluoro-3-methoxy-5-methylphenylamino)-5-methylpyrimidin-4-ylamino)benzo[d]oxazol-2(3H)-one], the IC50 (Homo sapiens, T-cell) was under 500 nM.
In the case of `CC(=O)N(C)c1ccc(Nc2ncc(C)c(Nc3ccc4oc(=O)[nH]c4c3)n2)cc1` [Compound I-309, N2-[4-(N-acetyl-N-methyl)amino]phenyl-5-methyl-N4-(2-oxo-2,3-dihydro-1,3-benzoxazol-5-yl)-2,4-pyrimidinediamine], the IC50 is reported as under 500 nM.
With `Cc1cnc(Nc2ccc(N3CCC(NS(C)(=O)=O)C3)nc2)nc1Nc1ccc2oc(=O)[nH]c2c1` (centres unmarked) [II-93, N-(1-(5-(5-methyl-4-(2-oxo-2,3-dihydrobenzo[d]oxazol-5-ylamino)pyrimidin-2-ylamino)pyridin-2-yl)pyrrolidin-3-yl)methanesulfonamide] the IC50 (Homo sapiens, T-cell) was under 500 nM.
Compound `Cc1cc(Nc2ncc(C)c(Nc3ccc4oc(=O)[nH]c4c3)n2)ccc1C(=O)O` [Compound I-170, 2-Methyl-4-[5-methyl-4-(2-oxo-2,3-dihydro-benzooxazol-5-ylamino)-pyrimidin-2-ylamino]-benzoic acid] has an IC50 (Homo sapiens, T-cell) of over 10000 nM.
Work on `Cc1cnc(Nc2ccc(N3CCC(F)(F)CC3)c(F)c2)nc1Nc1ccc2oc(=O)[nH]c2c1` [Compound I-275, N2-[4-(4,4-difluoropiperidinyl)-3-fluoro]phenyl-5-methyl-N4-(2-oxo-2,3-dihydro-1,3-benzoxazol-5-yl)-2,4-pyrimidinediamine] yielded an IC50 of under 500 nM.
Work on `Cc1cc(Nc2ncc(C)c(Nc3ccc4oc(=O)[nH]c4c3)n2)cc(C(F)(F)F)c1` [Compound I-479, 5-methyl-N2-(3-methyl-5-trifluoromethyl)phenyl-N4-(2-oxo-2,3-dihydro-1,3-benzoxazol-5-yl)-2,4-pyrimidinediamine] yielded an IC50 of under 500 nM.
In the case of `Cn1c(=O)oc2ccc(Nc3nc(Nc4cccc(S(C)(=O)=O)c4)ncc3F)cc21` [Compound I-77, N2-((3-methylsulfonyl)phenyl)-N4-(3-methyl-2-oxo-2,3-dihydrobenzo[d]oxazol-5-yl)-5-fluoropyrimidine-2,4-diamine], the IC50 is reported as 500 to 5000 nM.
`Cc1cnc(Nc2cc(OC3CCC3)cc(C(F)(F)F)c2)nc1Nc1ccc2oc(=O)[nH]c2c1` [Compound I-226, 5-(2-(3-cyclobutoxy-5-(trifluoromethyl)phenylamino)-5-methylpyrimidin-4-ylamino)benzo[d]oxazol-2(3H)-one] showed an IC50 (Homo sapiens, T-cell) of 500 to 5000 nM.
`Cc1cnc(Nc2cccc(S(N)(=O)=O)c2)nc1Nc1cc(F)c2oc(=O)[nH]c2c1` [Compound I-248, 3-(4-(7-fluoro-2-oxo-2,3-dihydrobenzo[d]oxazol-5-ylamino)-5-methylpyrimidin-2-ylamino)benzenesulfonamide] was tested, and the IC50 (Homo sapiens, T-cell) was under 500 nM.
`COc1cc(Nc2ncc(C)c(Nc3ccc4oc(=O)[nH]c4c3)n2)cc(OC)c1C` [Compound I-529, 5-(2-(3,5-dimethoxy-4-methylphenylamino)-5-methylpyrimidin-4-ylamino)benzo[d]oxazol-2(3H)-one] showed an IC50 (Homo sapiens, T-cell) of under 500 nM.
`Cc1cnc(Nc2ccc(N3CC4(C)CN(C)CC(C)(C3)C4)nc2)nc1Nc1ccc2oc(=O)[nH]c2c1` [II-117, 5-methyl-N4-(2-oxo-2,3-dihydro-1,3-benzoxazol-5-yl)-N2-[2-(1,3,5-trimethyl-3,7-diazabicyclo[3.3.1]nonan-7-yl)pyridin-5-yl]-2,4-pyrimidinediamine] showed an IC50 (Homo sapiens, T-cell) of under 500 nM.
`Cn1c(=O)n(C)c2cc(Nc3nc(Nc4cccc(NS(C)(=O)=O)c4)ncc3F)ccc21` [Compound I-42, N4-(1,3-dimethylbenzimidazolin-2-on-5-yl)-N2-((3-methylsulfonylamino)phenyl)-5-fluoropyrimidine-2,4-diamine] gave an IC50 of 500 to 5000 nM.
Compound `Cc1cnc(Nc2ccc(S(=O)(=O)NC(C)(C)C)cc2)nc1Nc1ccc2oc(=O)[nH]c2c1` [Compound I-112, N4-(benzoxazolin-2-on-5-yl)-N2-[4-N-(t-butyl)aminosulfonylphenyl]-5-methylpyrimidine-2,4-diamine] has an IC50 of under 500 nM.
For `Cc1cnc(Nc2cccc(OCC(=O)NC3CC3)c2)nc1Nc1ccc2oc(=O)[nH]c2c1` [Compound I-315, N2-[3-(cyclopropylaminocarbonylmethoxy)]phenyl-5-methyl-N4-(2-oxo-2,3-dihydro-1,3-benzoxazol-5-yl)-2,4-pyrimidinediamine], the IC50 was under 500 nM.
Compound `Cc1cnc(Nc2cc(F)cc(C(F)(F)F)c2)nc1Nc1ccc2oc(=O)[nH]c2c1` [Compound I-360, N2-(3-fluoro-5-trifluoromethyl)phenyl-5-methyl-N4-(2-oxo-2,3-dihydro-1,3-benzoxazol-5-yl)-2,4-pyrimidinediamine] has an IC50 of under 500 nM.
With `COc1cc(Nc2ncc(C)c(Nc3ccc4oc(=O)[nH]c4c3)n2)cc(C(C)NC2CC2)c1` (centres unmarked) [Compound I-233, 5-(2-(3-(1-(cyclopropylamino)ethyl)-5-methoxyphenylamino)-5-methylpyrimidin-4-ylamino)benzo[d]oxazol-2(3H)-one] the IC50 (Homo sapiens, T-cell) was under 500 nM.
In the case of `Cc1cnc(Nc2ccc(C(=O)N(C)C)cc2)nc1Nc1ccc2oc(=O)[nH]c2c1` [Compound I-132, N,N-Dimethyl-4-[5-methyl-4-(2-oxo-2,3-dihydro-benzooxazol-5-ylamino)-pyrimidin-2-ylamino]-benzamide], the IC50 (Homo sapiens, T-cell) is reported as under 500 nM.
`COc1cc(Nc2ncc(C)c(Nc3ccc4oc(=O)[nH]c4c3)n2)cc(Cl)c1OC` [Compound I-458, 5-(2-(3-chloro-4,5-dimethoxyphenylamino)-5-methylpyrimidin-4-ylamino)benzo[d]oxazol-2(3H)-one] was tested, and the IC50 (Homo sapiens, T-cell) was under 500 nM.
Work on `Cc1cnc(Nc2ccc(N3CCC(NCC4CC4)C3)nc2)nc1Nc1ccc2oc(=O)[nH]c2c1` (centres unmarked) [II-94, 5-(2-(6-(3-(cyclopropylmethylamino)pyrrolidin-1-yl)pyridin-3-ylamino)-5-methylpyrimidin-4-ylamino)benzo[d]oxazol-2(3H)-one] yielded an IC50 (Homo sapiens, T-cell) of under 500 nM.
With `Cc1cnc(Nc2ccc(NC3CC4CCC(C3)N4C)nc2)nc1Nc1ccc2oc(=O)[nH]c2c1` (centres unmarked) [II-37, N4-(benzo[d]oxazol-2(3H)-on-5-yl)-N2-[2-(8-methyl-8-aza-bicyclo[3.2.1]oct-3-yl)aminopyridin-5-yl]-5-methylpyrimidine-2,4-diamine] the IC50 (Homo sapiens, T-cell) was 500 to 5000 nM.
For `Cc1cnc(Nc2ccc(-c3ccc(N4CCOCC4)nc3)cc2)nc1Nc1ccc2oc(=O)[nH]c2c1` [Compound I-512, 5-(5-methyl-2-(4-(6-morpholinopyridin-3-yl)phenylamino)pyrimidin-4-ylamino)benzo[d]oxazol-2(3H)-one trifluoroacetate salt], the IC50 (Homo sapiens, T-cell) was under 500 nM.
`Cn1c(=O)oc2cc(Nc3nc(Nc4ccc(F)c(NS(C)(=O)=O)c4)ncc3F)ccc21` [Compound I-92, N2-((4-fluoro-3-methylsulfonylamino)phenyl)-N4-(3-methyl-2-oxo-2,3-dihydrobenzo[d]oxazol-6-yl)-5-fluoropyrimidine-2,4-diamine] gave an IC50 of over 10000 nM.
With `COc1ccc(Nc2ncc(C)c(Nc3cc(F)c4oc(=O)[nH]c4c3)n2)cc1C` [Compound I-431, 7-fluoro-5-(2-(4-methoxy-3-methylphenylamino)-5-methylpyrimidin-4-ylamino)benzo[d]oxazol-2(3H)-one] the IC50 (Homo sapiens, T-cell) was under 500 nM.
In the case of `Cc1cnc(Nc2cc(C#N)cc(OC(F)F)c2)nc1Nc1ccc2oc(=O)[nH]c2c1` [Compound I-478, N2-(3-cyano-5-difluoromethoxy)phenyl-5-methyl-N4-(2-oxo-2,3-dihydro-1,3-benzoxazol-5-yl)-2,4-pyrimidinediamine], the IC50 is reported as under 500 nM.
